This assay deals with human natural anti-Gal. Nature of the assay: TLC immunostaining of red blood cell glycolipids with human natural anti-Gal. The class given is binding. As to conditions: glycolipids on thin layer chromatography plates. The source says: A rich source for α-gal glycolipids is rabbit red blood cells. The two major glycosphingolipids (GSL), i.e. glycolipids with ceramide tail, in rabbit red blood cell membranes are ceramide (Cer) trihexoside (CTH, with 3 sugars [hexoses], present also in human red blood cells) with the structure Galα1-4Galβ1-4Glc-Cer and ceramide pentahexoside (CPH, with 5 sugars [hexoses]) with α-gal epitopes as terminal part of the CPH structure of Galα1-3Galβ1-4GlcNAcβ1-3Galβ1-4Glc-Cer (Eto T, Iichikawa Y, Nishimura K, Ando S, Yamakawa T J. Biochem. (Tokyo) 1968; 64: 205-13, and Stellner K, Saito H, Hakomori S. Arch. Biochem. Biophys. 1973; 133: 464-72) (See FIG. 1 and FIG. 6A, lane 1).
The use of α-gal glycolipids in the clinical setting may require much more material than that isolated from rabbit red blood cell membranes. The logistic limitations in supplies of large amounts of rabbit red blood cells can be overcome by the use of bovine red blood cells (i.e., for example, cow) instead of rabbit red blood cells since there is no practical limit to the amounts of bovine blood which can be supplied for preparation of α-gal glycolipids. […]

Regarding “Galα1-3Galβ1-4GlcNAcβ1-3Galβ1-4Glc-Cer [CPH]”, the “anti-Gal binding on TLC immunostaining” value was “binding of the antibody to CPH”.
